Experimental data reported in patent US9023789B2, “Amylin analogs and pharmaceutical compositions thereof” (Novo Nordisk A/S, priority 2012, dated 2015).
pIC50: −log10 of the molar value. Values after ≈ are worked out from the molar mass of the structure shown. Read-outs that look alike come from different tables or passages of the source. Numbered stars: 1 amine (or outer) side, 2 acyl side, 3 side chain; on linkers, the order of the positions; unused ones are H or OH. Bridge positions count the residues as written; N and C are the ends. Side chains are listed from the residue outwards. Peptide text beside a SMILES is read from it. * marks the point of attachment. C20 diacid = O=C(O)CCCCCCCCCCCCCCCCCCC(=O)*; γGlu = O=C(O)[C@H](CCC(=O)[*:2])N[*:1]; AEEA = NCCOCCOCC(=O)O

Legend:
[1] = target: T1, human amylin receptor (membranes from Amylin 3(a)/CRE-luc cells) (Homo sapiens, UniProt O60896+P30988); test: ASSAY (V) binding to the human amylin receptor (SPA, 125I-rat amylin);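 note: competition binding of cell membranes (35 ng/µL) mixed with SPA beads in 384-well plates at 40 µL total volume, read by scintillation counting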
T1 construct: expressed in transfected cells
T1 sequence (P30988 25-474): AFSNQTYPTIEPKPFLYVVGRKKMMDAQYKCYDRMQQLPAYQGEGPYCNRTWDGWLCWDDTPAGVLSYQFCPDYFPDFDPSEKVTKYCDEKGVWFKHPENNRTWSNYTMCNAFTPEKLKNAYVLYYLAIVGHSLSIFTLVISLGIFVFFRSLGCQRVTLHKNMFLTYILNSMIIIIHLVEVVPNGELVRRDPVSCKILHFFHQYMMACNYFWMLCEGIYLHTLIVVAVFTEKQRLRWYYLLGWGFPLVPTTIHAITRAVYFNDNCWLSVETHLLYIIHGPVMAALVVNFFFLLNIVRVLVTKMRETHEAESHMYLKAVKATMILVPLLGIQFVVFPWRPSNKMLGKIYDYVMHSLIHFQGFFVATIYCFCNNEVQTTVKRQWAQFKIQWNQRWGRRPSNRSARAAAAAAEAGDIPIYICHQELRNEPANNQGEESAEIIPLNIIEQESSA
T1 sequence (O60896 24-148 partner): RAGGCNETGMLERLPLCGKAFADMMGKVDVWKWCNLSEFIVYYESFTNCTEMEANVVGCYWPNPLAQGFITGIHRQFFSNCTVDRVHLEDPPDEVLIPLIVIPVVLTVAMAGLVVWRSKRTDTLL
Procedure: The binding assay was performed using scintillation proximity assay (SPA) beads (RPNQ0001) from PerkinElmer and cell membranes from the Amylin 3(a)/CRE-luc cells (as described in Assay (II)) were used. Membranes were prepared in the following way; the cells were rinsed with PBS and incubated with Versene for approximately 5 min before harvesting. The cells were flushed with PBS and the cell-suspension was centrifuged for 5 min at 1000 rpm. […] The resulting pellet was resuspended in buffer 2 and protein concentration was measured (BCA protein Assay, Pierce). The homogenate was kept cold during the whole procedure. The membranes were kept at −80° C. until use. The assay was performed in a 384 well Optiplate (PerkinElmer) in a total volume of 40 ul. Membranes were mixed with SPA beads. Final concentration of membranes 35 ng/μL final and SPA beads was 0.05 mg/well. Test-compounds were dissolved in DMSO and further diluted in assay buffer (50 mM Hepes, pH 7.4, 1 mM CaCl2, 5 mM MgCl2, 0.1% OA and 0.02% Tween20). […] Samples were analyzed on TopCounter™ (Packard). The IC50 was calculated using (one site binding competition analysis) GraphPad Prism5 as a measure of receptor affinity.

[2] = target: T2, human amylin 3(a) receptor (human calcitonin receptor + RAMP-3) in BHK570 cells (Homo sapiens, UniProt O60896+P30988); test: ASSAY (II)a functional assay, human amylin receptor (CRE luciferase); format: cell-based
T2 construct: expressed in transfected cells
Summary of the method: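 BHK CRE-luc cells, calcitonin (a) receptor ± RAMP-3 (amylin 3(a)); overnight seeding, 37° C/5% CO2. 3 h ligand exposure, DMEM/10% FBS/10 mM Hepes pH 7.4. LucLite 30 min RT; luminescence (SPC).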

rat calcitonin receptor = target: T3, rat calcitonin receptor (Rattus norvegicus, UniProt P32214); test: ASSAY (VIII) binding to the rat calcitonin receptor; settings: Table 7, read-out: rCTR bind IC50
T3 construct: expressed in transfected cells; host or cells: BHK tk'ts 13 (transient, FuGENE 6), membranes
T3 sequence (P32214 25-479 isoform P32214-2 limits assumed): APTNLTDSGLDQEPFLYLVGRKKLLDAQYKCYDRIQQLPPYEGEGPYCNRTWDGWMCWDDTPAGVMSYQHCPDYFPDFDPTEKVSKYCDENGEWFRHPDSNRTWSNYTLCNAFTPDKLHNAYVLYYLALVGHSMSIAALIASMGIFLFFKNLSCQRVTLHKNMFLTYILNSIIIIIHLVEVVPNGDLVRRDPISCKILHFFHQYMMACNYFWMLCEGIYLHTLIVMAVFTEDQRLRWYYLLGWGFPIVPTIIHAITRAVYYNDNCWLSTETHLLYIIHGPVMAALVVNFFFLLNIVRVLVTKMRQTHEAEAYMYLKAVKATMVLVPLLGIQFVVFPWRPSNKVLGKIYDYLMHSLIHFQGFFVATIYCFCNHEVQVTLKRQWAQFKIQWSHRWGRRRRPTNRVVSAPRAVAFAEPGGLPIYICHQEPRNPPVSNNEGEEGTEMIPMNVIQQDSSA
Summary of the method: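 Transfect BHK tk′ts 13 cells transiently with rat calcitonin receptor, culture in DMEM containing 10% FBS, collect cells about 48 hours later, then prepare membranes.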

[3] = ASSAY (IV) determination of solubility; format: physicochemical
Summary of the method: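 Polypeptide stock in water ([…]) was mixed 1:1 with 100 mM buffers: glycylglycine at pH 3.0, 4.0, 5.0 and bistrispropane at pH 6.0, 6.5, 7.0, 7.5, 8.0. After 18 hours at room temperature, samples were centrifuged and polypeptide concentration measured by UPLC.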

[4] = Table 5, selectivity, hCTR bind IC50 / hAmylin-R bind IC50
[5] = Table 5a, selectivity, hCTR bind IC50 / hAmylin-R bind IC50
[6] = Table 5b, selectivity, hCTR bind IC50 / hAmylin-R bind IC50
[7] = Table 5c, selectivity, hCTR bind IC50 / hAmylin-R bind IC50
[8] = Table 7, human binding selectivity, included for comparison
[9] = Table 7a (preferred compounds), human binding selectivity, included for comparison
[10] = ratio of human calcitonin receptor binding IC50 to human amylin receptor binding IC50
[11] = hCTR funct. EC50 divided by hAmylin-R funct. EC50
[12] = human functional selectivity: hCTR funct. EC50 / hAmylin-R funct. EC50
[13] = bistrispropane buffer, pH 6.5, read-out: Solubility pH 6.5 Concentration
[14] = bistrispropane buffer, pH 7.5, read-out: Solubility pH 7.5 Concentration
[15] = bistrispropane buffer, pH 6.0, read-out: Solubility pH 6.0 Concentration
[16] = bistrispropane buffer, pH 7.0, read-out: Solubility pH 7.0 Concentration
[17] = bistrispropane buffer, pH 8.0, read-out: Solubility pH 8.0 Concentration
[18] = glycylglycine buffer, pH 3.0, read-out: Solubility pH 3.0 Concentration
[19] = glycylglycine buffer, pH 4.0, read-out: Solubility pH 4.0 Concentration
[20] = glycylglycine buffer, pH 5.0, read-out: Solubility pH 5.0 Concentration

Row | Compound | Ratio hCT/hAmylin binding [1, 4] | Ratio hCT/hAmylin binding [1, 5] | Ratio hCT/hAmylin binding [1, 6] | Ratio hCT/hAmylin binding [1, 7] | Ratio hCT/hAmylin binding [1, 8] | Ratio hCT/hAmylin binding [1, 9] | Ratio hCT/hAmylin binding [1, 10] | Ratio hCT/hAmylin funct. [2, 11] | Ratio hCT/hAmylin funct. ([2]; hCTR funct. EC50 over hAmylin-R funct. EC50) | Ratio hCT/hAmylin funct. [2, 12] | pIC50 (rat calcitonin receptor) | solubility at 18 h [3, 13] [µM] | solubility at 18 h [3, 14] [µM] | solubility at 18 h [3, 15] [µM] | solubility at 18 h [3, 16] [µM] | solubility at 18 h [3, 17] [µM] | solubility at 18 h [3, 18] [µM] | solubility at 18 h [3, 19] [µM] | Solubility pH 6.5 Concentration ([3]; pH 6.5 (Table 9a)) | solubility at 18 h [3, 20] [µM]
1 | CC[C@H](C)[C@H](NC(=O)[C@H](C)NC(=O)CNC(=O)[C@H](Cc1ccccc1)NC(=O)[C@H](CC(N)=O)NC(=O)[C@@H]1CCCN1C(=O)[C@H](CO)NC(=O)[C@H](CO)NC(=O)[C@H](Cc1c[nH]cn1)NC(=O)[C@H](CCCNC(=N)N)NC(=O)[C@H](CC(C)C)NC(=O)[C@H](Cc1ccccc1)NC(=O)[C@H](Cc1c[nH]cn1)NC(=O)[C@H](C)NC(=O)[C@H](CC(C)C)NC(=O)[C@H](CCCNC(=N)N)NC(=O)[C@H](CCC(N)=O)NC(=O)[C@@H](NC(=O)[C@H](C)NC(=O)[C@@H]1CSSC[C@H](NC(=O)[C@H](CCCNC(=N)N)NC(=O)CNC(=O)CC[C@H](NC(=O)CCCCCCCCCCCCCCCCCCC(=O)O)C(=O)O)C(=O)N[C@@H](CC(N)=O)C(=O)N[C@@H]([C@@H](C)O)C(=O)N[C@@H](C)C(=O)N[C@@H]([C@@H](C)O)C(=O)N1)[C@@H](C)O)C(=O)N1CCC[C@H]1C(=O)N[C@@H](CO)C(=O)N[C@@H](CO)C(=O)N[C@H](C(=O)N[C@@H](CC(N)=O)C(=O)N[C@H](C(=O)NCC(=O)N[C@@H](Cc1c[nH]cn1)C(=O)N[C@@H](CC(N)=O)C(=O)N[C@H](C(=O)N[C@@H](Cc1ccc(O)cc1)C(N)=O)[C@@H](C)O)C(C)C)[C@@H](C)O [Example 100] ({C20 diacid-γGlu}-GRCNTATCATQRLAHFLRHSSPNFGAIPSSTNVGHNTY-NH2; disulfide 3-8 (inferred)) | 65.3 | 65.3 | 65.3 | 65.3 | 65.3 | 65.3 | 65.3 | 6.8 | 6.8 | 6.8 | 6.51 | ≥ 200 | 26 (≈ 118 µg/mL) | ≥ 200 | 109 (≈ 495 µg/mL) | 31 (≈ 141 µg/mL) | ≥ 200 | ≥ 200 | ≧200 μM | 
2 | CC[C@H](C)[C@H](NC(=O)[C@H](C)NC(=O)CNC(=O)[C@H](Cc1ccccc1)NC(=O)[C@H](CC(N)=O)NC(=O)[C@@H]1CCCN1C(=O)[C@H](CO)NC(=O)[C@H](CO)NC(=O)[C@H](Cc1c[nH]cn1)NC(=O)[C@H](CCCNC(=N)N)NC(=O)[C@H](CC(C)C)NC(=O)[C@H](Cc1ccccc1)NC(=O)[C@H](CC(N)=O)NC(=O)[C@H](C)NC(=O)[C@H](CC(C)C)NC(=O)[C@H](CCCNC(=N)N)NC(=O)[C@H](CCC(N)=O)NC(=O)[C@@H](NC(=O)[C@H](C)NC(=O)[C@@H]1CSSC[C@H](NC(=O)[C@@H](N)CCCCNC(=O)COCCOCCNC(=O)CC[C@H](NC(=O)CCCCCCCCCCCCCCCCCCC(=O)O)C(=O)O)C(=O)N[C@@H](CC(N)=O)C(=O)N[C@@H]([C@@H](C)O)C(=O)N[C@@H](C)C(=O)N[C@@H]([C@@H](C)O)C(=O)N1)[C@@H](C)O)C(=O)N1CCC[C@H]1C(=O)N[C@@H](CO)C(=O)N1CCC[C@H]1C(=O)N[C@H](C(=O)N[C@@H](CC(N)=O)C(=O)N[C@H](C(=O)NCC(=O)N1CCC[C@H]1C(=O)N[C@@H](CC(N)=O)C(=O)N[C@H](C(=O)N[C@@H](Cc1ccc(O)cc1)C(N)=O)[C@@H](C)O)C(C)C)[C@@H](C)O [Example 56] (H-K([AEEA-γGlu-C20 diacid])CNTATCATQRLANFLRHSSPNFGAIPSPTNVGPNTY-NH2; disulfide 2-7 (inferred); N-terminus assumed) | 42.6 | 42.6 | 42.6 | 42.6 | 42.6 | 42.6 | 42.6 | 5.0 |  | 5.0 | 8.28 | ≥ 200 | ≥ 200 | ≥ 200 | ≥ 200 | 147 (≈ 668 µg/mL) | ≥ 200 | ≥ 200 |  | ≥ 200
3 | CC[C@H](C)[C@H](NC(=O)[C@H](C)NC(=O)CNC(=O)[C@H](Cc1ccccc1)NC(=O)[C@H](CC(N)=O)NC(=O)[C@@H]1CCCN1C(=O)[C@H](CO)NC(=O)[C@H](CO)NC(=O)[C@H](Cc1c[nH]cn1)NC(=O)[C@H](CCCNC(=N)N)NC(=O)[C@H](CC(C)C)NC(=O)[C@H](Cc1ccccc1)NC(=O)CNC(=O)[C@H](C)NC(=O)[C@H](CC(C)C)NC(=O)[C@H](CCCNC(=N)N)NC(=O)[C@H](CCC(N)=O)NC(=O)[C@@H](NC(=O)[C@H](C)NC(=O)[C@@H]1CSSC[C@H](NC(=O)[C@@H](N)CCCCNC(=O)COCCOCCNC(=O)CC[C@H](NC(=O)CCCCCCCCCCCCCCCCCCC(=O)O)C(=O)O)C(=O)N[C@@H](CC(N)=O)C(=O)N[C@@H]([C@@H](C)O)C(=O)N[C@@H](C)C(=O)N[C@@H]([C@@H](C)O)C(=O)N1)[C@@H](C)O)C(=O)N1CCC[C@H]1C(=O)N[C@@H](CO)C(=O)N[C@@H](CO)C(=O)N[C@H](C(=O)N1CCC[C@H]1C(=O)N[C@H](C(=O)NCC(=O)N[C@@H](CO)C(=O)N[C@@H](CC(N)=O)C(=O)N[C@H](C(=O)N[C@@H](Cc1ccc(O)cc1)C(N)=O)[C@@H](C)O)C(C)C)[C@@H](C)O [Example 71] (H-K([AEEA-γGlu-C20 diacid])CNTATCATQRLAGFLRHSSPNFGAIPSSTPVGSNTY-NH2; disulfide 2-7) | 32.0 | 32.0 | 32.0 | 32.0 | 32.0 | 32.0 | 32.0 | 9.4 |  | 9.4 | 7.35 | ≥ 200 | ≥ 200 | ≥ 200 | ≥ 200 | ≥ 200 | ≥ 200 | ≥ 200 |  | ≥ 200
